Results from PMC4569695, “Optogenetic manipulation of cGMP in cells and animals by the tightly light-regulated guanylyl-cyclase opsin CyclOp” (Nature Communications, 2015).

Biological target: T1, bPGC (Beggiatoa sp. PS, UniProt Z9M4H6XJE9, K200E/D268K/T270G)
T1 construct: triple mutant of human codon-optimized bPAC, C-terminal YFP, expressed in Xenopus oocytes
T1 sequence (Z9M4H6XJE9 4-353 K200E/D268K/T270G): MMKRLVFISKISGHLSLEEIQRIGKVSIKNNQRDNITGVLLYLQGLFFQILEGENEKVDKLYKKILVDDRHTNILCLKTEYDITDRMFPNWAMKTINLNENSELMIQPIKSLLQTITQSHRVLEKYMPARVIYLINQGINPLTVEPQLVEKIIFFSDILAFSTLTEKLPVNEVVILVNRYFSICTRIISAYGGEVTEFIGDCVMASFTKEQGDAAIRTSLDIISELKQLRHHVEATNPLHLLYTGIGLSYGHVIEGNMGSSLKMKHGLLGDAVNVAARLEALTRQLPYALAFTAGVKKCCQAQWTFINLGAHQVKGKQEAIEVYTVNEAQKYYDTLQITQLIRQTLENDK
Test: cGMP immunoassay, extracts of intact oocytes
Type: cell-based
Details: endogenous GTP, 464 nm light

Nc1nc2c(ncn2[C@@H]2O[C@H](COP(=O)(O)OP(=O)(O)OP(=O)(O)O)[C@@H](O)[C@H]2O)c(=O)[nH]1 [GTP]
cGMP immunoassay, extracts of intact oocytes: bPGC produced at least one cAMP for every four cGMP molecules under in vivo conditions
